This passage reports melting point and IC50 results from US20110105436A1, “HETEROARYL COMPOUNDS, COMPOSITIONS, AND METHODS OF USE IN CANCER TREATMENT” (AUCKLAND UNISERVICES LIMITED, priority 2008, published 2011).

The structures appear in SMILES notation. Bounds are passed on as bounds.

The subject of series [1] is RCC4 cells. In words: XTT assay in VHL-deficient RCC4 cells. It is filed as cell-based. Particulars: Homo sapiens, 96 h, XTT assay, VHL-deficient RCC4 cells, four days. On the procedure:
Cell Viability and XTT assays. For cell viability, 100,000 cells were plated in a 12-well plate. The following day, 1.25 μM STF-62247 was added in the presence or absence of 1 mM 3-MA for 24 hours at 37° C. Cells were trypsinized and counted by trypan blue exclusion. For XTT assays, 5000 RCC4 with and without VHL cells or 2,500 SN12C with and without VHL shRNA cells were plated in 96-well plates. The following day, vehicle (DMSO), STF-62247 or each of 19 analogs were added to media by serial dilution. Four days later, the media was aspirated and XTT solution containing 0.3 mg/ml of XTT (Sigma Chemical Co) in Phenol Red-free media, 20% FCS and 2.65 mg/ml N-methyl dibenzopyrazine methyl sulfate (PMS) was added to the cells and incubated at 37° C. for 1-2 hours. Metabolism of XTT was quantified by measuring the absorbance at 450 nm on a plate reader.
(In general: Tetrazolium dyes change colour on reduction, which living cells bring about.)

For orientation: melting point means the temperature of the solid-liquid transition. Usually IC50 stands for the concentration that gives 50% inhibition. Lower therefore signals higher potency. `CC(C)(C)c1cccc(Nc2nc(-c3ccncc3)cs2)c1` [Compound 11, N-(3-tert-Butylphenyl)-4-(4-pyridinyl)-1,3-thiazol-2-amine] registered a melting point of 208 to 210 °C. The molecule further came in with an IC50 in series [1] (Table 1) greater than 40 µM.

The molecule `FC(F)(F)c1cccc(Nc2nc(-c3ccncc3)cs2)c1` [Compound 19, 4-(4-Pyridinyl)-N-[3-(trifluoromethyl)phenyl]-1,3-thiazol-2-amine] yielded a melting point of 239 to 241 °C. The same molecule came in with an IC50 in series [1] (Table 1) greater than 40 µM. `O=[N+]([O-])c1ccc(Nc2nc(-c3ccncc3)cs2)cc1` [Compound 35, N-(4-Nitrophenyl)-4-(4-pyridinyl)-1,3-thiazol-2-amine] displayed a melting point greater than 290 °C. This molecule had an IC50 in series [1] (Table 1) greater than 40 µM.

For `COc1cc(Nc2nc(-c3ccncc3)cs2)cc(OC)c1` [Compound 57, N-(3,5-Dimethoxyphenyl)-4-(4-pyridinyl)-1,3-thiazol-2-amine], the melting point lay in the range of 229 to 231 °C. In series [1] (Table 1), the IC50 is greater than 40 µM. With `c1cc(-c2csc(Nc3ccc4c(c3)OCO4)n2)ccn1` [Compound 59, N-(1,3-Benzodioxol-5-yl)-4-(4-pyridinyl)-1,3-thiazol-2-amine], the melting point lay within 201 to 203 °C. In series [1] (Table 1), this molecule gave an IC50 greater than 40 µM. In the case of `COc1cc(Nc2nc(-c3ccncc3)cs2)cc(OC)c1OC` [Compound 63, 4-(4-Pyridinyl)-N-(3,4,5-trimethoxyphenyl)-1,3-thiazol-2-amine], the melting point was in the range of 207 to 209 °C. In series [1] (Table 1), this molecule showed an IC50 greater than 40 µM. `Cc1cccc(Nc2nc(-c3ccncc3)c(C=O)s2)c1` [Compound 77, 2-[(3-Methylphenyl)amino]-4-(4-pyridinyl)-1,3-thiazole-5-carbaldehyde] registered a melting point of 220 to 223 °C. For the same molecule, inhibition in series [1] (Table 1) was half-maximal at 15 µM (IC50). For `COC(=O)CCc1sc(Nc2cccc(C)c2)nc1-c1ccncc1` [Compound 79, Methyl 3-[2-[(3-Methylphenyl)amino]-4-(4-pyridinyl)-1,3-thiazol-5-yl]propanoate], the melting point was in the range of 121 to 123 °C. Further, the IC50 in series [1] (Table 1) is greater than 40 µM. The matching figures for `CCOC(=O)c1sc(Nc2cccc(C)c2)nc1-c1ccncc1` [Compound 88, Ethyl 2-[(3-Methylphenyl)amino]-4-(4-pyridinyl)-1,3-thiazole-5-carboxylate]: 233 to 235 °C and greater than 40 µM. Molecule `CCOC(=O)c1sc(Nc2ccc3c(c2)CCC3)nc1-c1ccncc1` [Compound 89, Ethyl 2-(2,3-Dihydro-1H-inden-5-ylamino)-4-(4-pyridinyl)-1,3-thiazole-5-carboxylate] gave a melting point of 203 to 205 °C. In series [1] (Table 1), this molecule had an IC50 greater than 40 µM. Turning to `Cc1cccc(Nc2nc(-c3ccncc3)c(C(=O)NCCN(C)C)s2)c1` [Compound 93, N-[2-(Dimethylamino)ethyl]-2-[(3-methylphenyl)amino]-4-(4-pyridinyl)-1,3-thiazole-5-carboxamide], the melting point was 189 to 191 °C. In series [1] (Table 1), this molecule displayed an IC50 greater than 40 µM. Consider `Cc1cccc(Nc2nc(-c3ccncc3)c(C(=O)NCCCN3CCOCC3)s2)c1` [Compound 94, 2-[(3-Methylphenyl)amino]-N-[3-(4-morpholinyl)propyl]-4-(4-pyridinyl)-1,3-thiazole-5-carboxamide], for which the melting point was 190 to 192 °C. Besides, the 50% inhibitory concentration (IC50) in series [1] (Table 1) is greater than 40 µM. `Cc1cccc(N(CCO)c2nc(-c3ccncc3)cs2)c1` [Compound 97, 2-{3-Methyl[4-(4-pyridinyl)-1,3-thiazol-2-yl]anilino}ethanol] registered a melting point of 149 to 151 °C. The same molecule displayed an IC50 in series [1] (Table 1) greater than 40 µM. Turning to `O=C(Nc1nc(-c2ccncc2)cs1)c1ccccc1` [Compound 99, N-[4-(4-Pyridinyl)-1,3-thiazol-2-yl]benzamide], the melting point fell in the range of 241 to 243 °C. Moreover, in series [1] (Table 1), the IC50 was greater than 40 µM. In the case of `Cc1cccc(C(=O)Nc2nc(-c3ccncc3)cs2)c1` [Compound 100, 3-Methyl-N-[4-(4-pyridinyl)-1,3-thiazol-2-yl]benzamide], the melting point was 201 to 202 °C. Further, the IC50 in series [1] (Table 1) was greater than 40 µM.

The molecule `Cc1ccc(C(=O)Nc2nc(-c3ccncc3)cs2)cc1` [Compound 101, 4-Methyl-N-[4-(4-pyridinyl)-1,3-thiazol-2-yl]benzamide] showed a melting point of 238 to 241 °C. In series [1] (Table 1), this molecule yielded an IC50 greater than 40 µM. The molecule `COc1ccc(C(=O)Nc2nc(-c3ccncc3)cs2)cc1` [Compound 102, 4-Methoxy-N-[4-(4-pyridinyl)-1,3-thiazol-2-yl]benzamide] gave a melting point of 271 to 274 °C. This molecule came in with a concentration for half-maximal inhibition (IC50) in series [1] (Table 1) greater than 40 µM.

In the case of `Cc1cccc(CNc2nc(-c3ccncc3)cs2)c1` [Compound 103, N-(3-Methylbenzyl)-4-(4-pyridinyl)-1,3-thiazol-2-amine], the melting point lay in the range of 192 to 194 °C. In series [1] (Table 1), this molecule gave a half-inhibitory concentration (IC50) greater than 40 µM. The like results for `Cc1cccc(Nc2nc(-c3ccncc3)co2)c1` [Compound 105, N-(3-Methylphenyl)-4-(4-pyridinyl)-1,3-oxazol-2-amine] were, in that order, 201 to 204 °C and greater than 40 µM. In turn, `Cc1ccccc1Nc1nc(-c2ccncc2)cs1` [Compound 111, N-(2-Methylphenyl)-4-(4-pyridinyl)-1,3-thiazol-2-amine] registered a melting point of 158 to 160 °C. Moreover, the IC50 in series [1] (Table 1) was greater than 40 µM. Molecule `FC(F)(F)c1ccccc1Nc1nc(-c2ccncc2)cs1` [Compound 117, 4-(4-Pyridinyl)-N-[2-(trifluoromethyl)phenyl]-1,3-thiazol-2-amine] registered a melting point of 170 to 172 °C. Besides, in series [1] (Table 1), the IC50 is greater than 40 µM. Take `O=[N+]([O-])c1ccccc1Nc1nc(-c2ccncc2)cs1` [Compound 119, N-[2-Nitrophenyl]-4-(4-pyridinyl)-1,3-thiazol-2-amine]: the melting point fell in the range of 127 to 130 °C. The half-maximal inhibitory concentration (IC50) in series [1] (Table 1) is greater than 40 µM.

Molecule `Fc1cccc(Nc2nc(-c3ccncc3)cs2)c1` [Compound 121, N-(3-Fluorophenyl)-4-(4-pyridinyl)-1,3-thiazol-2-amine] showed a melting point of 229 to 230 °C. In series [1] (Table 1), this molecule returned an IC50 greater than 40 µM. The molecule `N#Cc1cccc(Nc2nc(-c3ccncc3)cs2)c1` [Compound 127, 3-{[4-(4-Pyridinyl)-1,3-thiazol-2-yl]amino}benzonitrile] showed a melting point of 252 to 253 °C. In series [1] (Table 1), this molecule had an IC50 greater than 40 µM. Take `O=[N+]([O-])c1cccc(Nc2nc(-c3ccncc3)cs2)c1` [Compound 129, N-(3-Nitrophenyl)-4-(4-pyridinyl)-1,3-thiazol-2-amine]: the melting point lay in the range of 244 to 247 °C. In series [1] (Table 1), this molecule showed an IC50 greater than 40 µM. As to `N#Cc1ccc(Nc2nc(-c3ccncc3)cs2)cc1` [Compound 135, 4-{[4-(4-Pyridinyl)-1,3-thiazol-2-yl]amino}benzonitrile], the melting point was greater than 300 °C. In addition, in series [1] (Table 1), the IC50 was greater than 40 µM. With `Cc1cccc(C)c1Nc1nc(-c2ccncc2)cs1` [Compound 137, N-(2,6-Dimethylphenyl)-4-(4-pyridinyl)-1,3-thiazol-2-amine], the melting point was 208 to 210 °C. The IC50 in series [1] (Table 1) was greater than 40 µM.

As to `Fc1cccc(F)c1Nc1nc(-c2ccncc2)cs1` [Compound 139, N-(2,6-Difluorophenyl)-4-(4-pyridinyl)-1,3-thiazol-2-amine], the melting point lay within 209 to 211 °C. In addition, the IC50 in series [1] (Table 1) is greater than 40 µM.

Regarding `Cc1cccc(Nc2nc(-c3ccnc(C)c3)cs2)c1` [Compound 145, N-(3-Methylphenyl)-4-(2-methyl-4-pyridinyl)-1,3-thiazol-2-amine], the melting point was in the range of 198 to 200 °C. The same molecule displayed an IC50 in series [1] (Table 2) greater than 40 µM. The matching figures for `Cc1cccc(Nc2nc(-c3ccncc3N)cs2)c1` [Compound 182]: 159 to 161 °C and greater than 40 µM. In turn, `Cc1cccc(Nc2nc(-c3cc[n+]([O-])cc3)cs2)c1` [Compound 188, N-(3-Methylphenyl)-4-(1-oxido-4-pyridinyl)-1,3-thiazol-2-amine] returned a melting point of 162 to 164 °C. The IC50 in series [1] (Table 2) was greater than 40 µM. With `Cc1cccc(Nc2nc(-c3ccnc(N(C)C)c3)cs2)c1` [Compound 199, N,N-Dimethyl-4-{2-[(3-methylphenyl)amino]-1,3-thiazol-4-yl}-2-pyridinamine], the melting point is 148 to 150 °C.
